Results from US12344610B2, “APOL1 inhibitors and methods of use” (Maze Therapeutics, Inc., priority 2022, dated 2025).
Where two headings read alike, the source gives them in different places.

What was measured:
[1] = tested on: HEK293 cells overexpressing APOL1 G2; assay: APOL1 G2 HEK293 cell rescue assay (reversal of cell death caused by overexpression of APOL1); type: cell-based; conditions: geometric mean of at least 2 assay runs, † = single assay run
In short: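 EC50 is the half-maximal effective concentration for reversing cell death driven by APOL1 G2 overexpression in HEK293 cells. Reported as geometric mean of at least 2 runs on separate days, each run averaging duplicate wells per plate; some values from a single run.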

[2] = tested on: Trypanosoma brucei Lister 427 VSG221 with APOL1 G0 recombinant protein; assay: APOL1 G0 trypanosome cell rescue assay (Example B5); type: cell-based; conditions: geometric mean of at least 2 assay runs, † = single assay run
In short: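 Compounds in duplicate 2-fold, 11-point series with 0.4% DMSO final. Next, tag-free mature APOL1 variant protein went in from a 2 μg/mL solution, then trypanosomes to 250 per well. Plates incubated 20 h humidified at 37° C, equilibrated to room temperature, and CellTiter-Glo added for luminescence.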

[3] = Homo sapiens, HEK293, HEK293 overexpressing APOL1 G2
[4] = Trypanosoma brucei, 20 h, read-out: APOL1 G0 Trypanosome Rescue EC50, Trypanosoma brucei Lister 427 VSG221 with APOL1 G0 recombinant protein, 20 hours, CellTiter-Glo

| SMILES | EC50 [1, 3] [nM] | EC50 [2, 4] [nM] | EC50 ([1]; HEK293 overexpressing APOL1 G2) [nM] | EC50 ([2]; read-out: APOL1 G0 Trypanosome Rescue EC50, Trypanosoma brucei Lister 427 VSG221 with APOL1 G0 recombinant protein, 20 hours, CellTiter-Glo) [nM] |
| --- | --- | --- | --- | --- |
| N#Cc1ccc2c(c1)C1(CCN(CCOc3ccc(C(N)=O)c(C(F)F)c3)CC1)C(=O)N2 [Compound 250, 4-(2-{5-cyano-2-oxo-1,2-dihydrospiro[indole-3,4′-piperidin]-1′-yl}ethoxy)-2-(difluoromethyl)benzamide] | 49.2 | 445 |  |  |
| Cn1c(=O)[nH]c2cc(OCCN3CCC4(CC3)C(=O)Nc3ccc(Cl)cc34)cnc21 [Compound 247, 5-chloro-1′-[2-({3-methyl-2-oxo-1H,2H,3H-imidazo[4,5-b]pyridin-6-yl}oxy)ethyl]-1,2-dihydrospiro[indole-3,4′-piperidin]-2-one] | 92 | 186 |  |  |
| CN(C)C(=O)c1ccc(OCCN2CCC3(CC2)C(=O)Nc2ccc(Cl)cc23)cc1F [Compound 230, 4-(2-{5-chloro-2-oxo-1,2-dihydrospiro[indole-3,4′-piperidin]-1′-yl}ethoxy)-2-fluoro-N,N-dimethylbenzamide] | 98.7 | 427 |  |  |
| CS(=O)(=O)c1ccc(OCCN2CCC3(CC2)C(=O)Nc2ccc(C#N)cc23)cc1C(F)CF (single isomer, unassigned) [Compound 221, 1′-(2-{3-[(1S or 1R)-1,2-difluoroethyl]-4-methanesulfonyl-phenoxy}ethyl)-2-oxo-1,2-dihydrospiro [indole-3,4′-piperidine]-5-carbonitrile] |  | 75 | 47.4 |  |
| CS(=O)(=O)c1ccc(OCCN2CCC3(CC2)C(=O)Nc2ccc(Cl)cc23)cc1C(F)F [Compound 197, 5-chloro-1′-{2-[3-(difluoromethyl)-4-methanesulfonylphenoxy]ethyl}-1,2-dihydrospiro[indole-3,4′-piperidin]-2-one] | 32.3 | 30.3 |  |  |
| COCCN1C(=O)C2(CCN(CCOc3ccc(S(C)(=O)=O)cc3)CC2)c2cc(Cl)ccc21 [Compound 20, 5-chloro-1′-[2-(4-methanesulfonylphenoxy)ethyl]-1-(2-methoxyethyl)-1,2-dihydrospiro[indole-3,4′-piperidin]-2-one] | 294 | 798 |  |  |
| CN1C(=O)C2(CCN(CCOc3ccc(C4(S(C)(=O)=O)CC(O)C4)cc3)CC2)c2cc(C(F)F)ccc21 (single isomer, unassigned) [Compound 278, 5-(difluoromethyl)-1-methyl-1′-(2-{4-[(cis) or (trans)-3-hydroxy-1-methanesulfonylcyclobutyl]phenoxy}ethyl)-1,2-dihydrospiro[indole-3,4′-piperidin]-2-one] |  | 114 | 23 |  |
| O=C1CCc2cc(OCCN3CCC4(CC3)C(=O)Nc3ccc(Cl)cc34)cnc2N1[C@H]1C[C@@](O)(C2CC2)C1 (single isomer, unassigned) [Compound 297, 5-chloro-1′-[2-({7-oxo-8-[(trans)-3-cyclopropyl-3-hydroxycyclobutyl]-5,6,7,8-tetrahydro-1,8-naphthyridin-3-yl}oxy)ethyl]-1,2-dihydrospiro[indole-3,4′-piperidin]-2-one] | 31.8 | 72.6 |  |  |
| O=C1Nc2ccc(Cl)cc2C12CCN(CCOc1ccc(S(=O)(=O)CCO)cc1)CC2 [Compound 198, 5-chloro-1′-{2-[4-(2-hydroxyethanesulfonyl)phenoxy)ethyl}-1,2-dihydrospiro[indole-3,4′-piperidin]-2-one] | 63.1 | 107 |  |  |
| C[C@@H](COc1ccc(S(C)(=O)=O)c(C(F)F)c1)N1CCC2(CC1)C(=O)Nc1ccc(C#N)cc12 (single isomer, unassigned) [Compound 212] | 81.4 | 69.6 |  |  |
| CC(O)c1ncc(OCCN2CCC3(CC2)C(=O)Nc2ccc(C(F)F)cc23)cc1C(F)(F)F (single isomer, unassigned) [Compound 288, 5-(difluoromethyl)-1′-[2-({6-[(1R) or (1S)-1-hydroxyethyl]-5-(trifluoromethyl)pyridin-3-yl}oxy)ethyl]-1,2-dihydrospiro[indole-3,4′-piperidin]-2-one] |  |  | 34.1 | 26.2 |
| O=C1Nc2ccc(Cl)cc2C12CCN(CCOc1ccc(S(=O)(=O)C3(C(=O)N4CCC4)CC3)cc1)CC2 [Compound 228, 1′-[2-(4-{[1-(azetidine-1-carbonyl)cyclopropyl]sulfonyl}phenoxy)ethyl]-5-chloro-1,2-dihydrospiro[indole-3,4′-piperidin]-2-one] | 101 | 196 |  |  |
| O=C1Nc2ccc(Cl)cc2C12CCN(CCOc1cnc3c(N4CC(O)C4)nccc3c1)CC2 [Compound 314, 5-chloro-1′-(2-{[8-(3-hydroxyazetidin-1-yl)-1,7-naphthyridin-3-yl]oxy}ethyl)-1,2-dihydrospiro[indole-3,4′-piperidin]-2-one] | 24.3 | 25.4 |  |  |
| O=C(c1ccc(OCCN2CCC3(CC2)C(=O)Nc2ccc(Cl)cc23)cc1F)N1CCOCC1 [Compound 231, 5-chloro-1′-{2-[3-fluoro-4-(morpholine-4-carbonyl)phenoxy]ethyl}-1,2-dihydrospiro[indole-3,4′-piperidin]-2-one] | 42 | 135 |  |  |
| CN1C(=O)C2(CCN(CCOc3cc(F)c(C(=O)N4CCS(=O)(=O)CC4)c(F)c3)CC2)c2cc(C#N)ccc21 [Compound 260, 1′-{2-[4-(1,1-dioxo-1λ^6-thiomorpholine-4-carbonyl)-3,5-difluorophenoxy]ethyl}-1-methyl-2-oxo-1,2-dihydrospiro[indole-3,4′-piperidine]-5-carbonitrile] | 119 | 274 |  |  |
| C[C@]1(O)C[C@H](N2C(=O)CCc3cc(OCCN4CCC5(CC4)C(=O)Nc4ccc(Cl)cc45)cnc32)C1 (single isomer, unassigned) [Compound 307, 5-chloro-1′-[2-({7-oxo-8-[(trans)-3-hydroxy-3-methylcyclobutyl]-5,6,7,8-tetrahydro-1,8-naphthyridin-3-yl}oxy)ethyl]-1,2-dihydrospiro[indole-3,4′-piperidin]-2-one] | 20.4 | 65.7 |  |  |
| O=C(c1ccc(OCCN2CCC3(CC2)C(=O)Nc2ccc(Cl)cc23)cc1F)N1CCS(=O)(=O)CC1 [Compound 232, 4-[4-(2-{5-chloro-2-oxo-1,2-dihydrospiro[indole-3,4′-piperidin]-1′-yl}ethoxy)-2-fluorobenzoyl]-1λ^6-thiomorpholine-1,1-dione] | 39.2 | 97.6 |  |  |
| CC1(O)CN(c2nccc3cc(OCCN4CCC5(CC4)C(=O)Nc4ccc(Cl)cc45)cnc23)C1 [Compound 306, 5-chloro-1′-(2-{[8-(3-hydroxy-3-methylazetidin-1-yl)-1,7-naphthyridin-3-yl]oxy}ethyl)-1,2-dihydrospiro[indole-3,4′-piperidin]-2-one] | 110 | 37 |  |  |
| CC(O)c1ncc(OCCN2CCC3(CC2)C(=O)Nc2ccc(Cl)cc23)cc1C(F)(F)F (single isomer, unassigned) [Compound 291, 5-chloro-1′-[2-({6-[(1R) or (1S)-1-hydroxyethyl]-5-(trifluoromethyl)pyridin-3-yl}oxy)ethyl]-1,2-dihydrospiro[indole-3,4′-piperidin]-2-one] | 26.4 | 63.1 |  |  |
| CC1(O)CN(c2ncc(OCCN3CCC4(CC3)C(=O)Nc3ccc(Cl)cc34)cn2)C1 [Compound 300, 5-chloro-1′-(2-{[2-(3-hydroxy-3-methylazetidin-1-yl)pyrimidin-5-yl]oxy}ethyl)-1,2-dihydrospiro[indole-3,4′-piperidin]-2-one] | 100 | 375 |  |  |
